Assay results: publication PMC7156458, “Synthetic biology based construction of biological activity-related library of fungal decalin-containing diterpenoid pyrones” (Nature Communications, 2020)

Molecular target: Aβ42 (Homo sapiens, UniProt P05067)
Experiment: Th-T (thioflavin-T) assay of Aβ42 aggregation
Format: biochemical
Settings: for Th-T fluorescence of Aβ42 (sheet Fig. 7a), mean of three wells: head suffix _50 (concentration 50); for Th-T assay plate reading, mean of three wells (Supplementary Fig. 47): source data, Ab alone and No Ab as controls; for Th-T fluorescence, mean of three wells: Supplementary Fig. 47 source data

Sequence of Aβ42 (P05067 672-713): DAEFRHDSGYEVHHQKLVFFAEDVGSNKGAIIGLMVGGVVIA

With `C=C1CCC2C(C)(CCC=C(C)C)C(O)CCC2(C)C1Cc1c(OC)oc(CO)c(C(=O)OC)c1=O` (stereo not drawn) [Compound 13] the “Th-T fluorescence of Aβ42 (sheet Fig. 7a), mean of three wells” value (from here on “Th-T fluorescence of Aβ42”) (reading M73) was 0.4729, the “Th-T fluorescence of Aβ42” value (reading M74) was 0.4696 and the “Th-T fluorescence of Aβ42” value (reading M75) was 0.4709. The “Th-T fluorescence of Aβ42” value (reading M76) was 0.4704, the “Th-T fluorescence of Aβ42” value (reading M77) was 0.4733 and the “Th-T fluorescence of Aβ42” value (reading M78) was 0.4716. The “Th-T fluorescence of Aβ42” value (reading M79) was 0.4696, the “Th-T fluorescence of Aβ42” value (reading M80) was 0.4702 and the “Th-T fluorescence of Aβ42” value (reading M81) was 0.4727. The “Th-T fluorescence of Aβ42” value (reading M82) was 0.4723, the “Th-T fluorescence of Aβ42” value (reading M83) was 0.4714 and the “Th-T fluorescence of Aβ42” value (reading M84) was 0.4716. The “Th-T assay plate reading, mean of three wells (Supplementary Fig. 47)” value (from here on “Th-T assay plate reading, mean”) (measurement M1) was 0.2585, the “Th-T assay plate reading, mean” value (measurement M2) was 0.2393 and the “Th-T assay plate reading, mean” value (measurement M3) was 0.2328. The “Th-T assay plate reading, mean” value (measurement M4) was 0.2253, the “Th-T assay plate reading, mean” value (measurement M5) was 0.2121 and the “Th-T assay plate reading, mean” value (measurement M6) was 0.2004. The “Th-T assay plate reading, mean” value (measurement M7) was 0.1938, the “Th-T assay plate reading, mean” value (measurement M8) was 0.1852 and the “Th-T assay plate reading, mean” value (measurement M9) was 0.1809. The “Th-T assay plate reading, mean” value (measurement M10) was 0.1743, the “Th-T assay plate reading, mean” value (measurement M11) was 0.1726 and the “Th-T assay plate reading, mean” value (measurement M12) was 0.1685. For the same molecule, the “Th-T assay plate reading, mean” value (measurement M13) was 0.1699, the “Th-T assay plate reading, mean” value (measurement M14) was 0.1695 and the “Th-T assay plate reading, mean” value (measurement M15) was 0.1669. The “Th-T assay plate reading, mean” value (measurement M16) was 0.1721, the “Th-T fluorescence, mean of three wells (Fig. 7a)” value (“Th-T fluorescence … (Fig. 7a)” for short) (reading M107, compound at 10 (head suffix _10)) was 1.546 and the “Th-T fluorescence … (Fig. 7a)” value (reading M107, compound at 20 (head suffix _20)) was 1.033. The “Th-T fluorescence … (Fig. 7a)” value (reading M107, compound at 50 (head suffix _50)) was 0.4755, the “Th-T fluorescence … (Fig. 7a)” value (reading M108, compound at 10 (head suffix _10)) was 1.544 and the “Th-T fluorescence … (Fig. 7a)” value (reading M108, compound at 20 (head suffix _20)) was 1.036. The “Th-T fluorescence … (Fig. 7a)” value (reading M108, compound at 50 (head suffix _50)) was 0.4722, the “Th-T fluorescence … (Fig. 7a)” value (reading M109, compound at 10 (head suffix _10)) was 1.548 and the “Th-T fluorescence … (Fig. 7a)” value (reading M109, compound at 20 (head suffix _20)) was 1.038. The “Th-T fluorescence … (Fig. 7a)” value (reading M109, compound at 50 (head suffix _50)) was 0.476, the “Th-T fluorescence … (Fig. 7a)” value (reading M110, compound at 10 (head suffix _10)) was 1.549 and the “Th-T fluorescence … (Fig. 7a)” value (reading M110, compound at 20 (head suffix _20)) was 1.043. For the same molecule, the “Th-T fluorescence … (Fig. 7a)” value (reading M110, compound at 50 (head suffix _50)) was 0.4785, the “Th-T fluorescence … (Fig. 7a)” value (reading M111, compound at 10 (head suffix _10)) was 1.553 and the “Th-T fluorescence … (Fig. 7a)” value (reading M111, compound at 20 (head suffix _20)) was 1.041. For the same molecule, the “Th-T fluorescence … (Fig. 7a)” value (reading M111, compound at 50 (head suffix _50)) was 0.4751, the “Th-T fluorescence … (Fig. 7a)” value (reading M112, compound at 10 (head suffix _10)) was 1.549 and the “Th-T fluorescence … (Fig. 7a)” value (reading M112, compound at 20 (head suffix _20)) was 1.035. The “Th-T fluorescence … (Fig. 7a)” value (reading M112, compound at 50 (head suffix _50)) was 0.4724, the “Th-T fluorescence … (Fig. 7a)” value (reading M113, compound at 10 (head suffix _10)) was 1.549 and the “Th-T fluorescence … (Fig. 7a)” value (reading M113, compound at 20 (head suffix _20)) was 1.03. For the same molecule, the “Th-T fluorescence … (Fig. 7a)” value (reading M113, compound at 50 (head suffix _50)) was 0.473, the “Th-T fluorescence … (Fig. 7a)” value (reading M114, compound at 10 (head suffix _10)) was 1.5404 and the “Th-T fluorescence … (Fig. 7a)” value (reading M114, compound at 20 (head suffix _20)) was 1.03. The “Th-T fluorescence … (Fig. 7a)” value (reading M114, compound at 50 (head suffix _50)) was 0.4728, the “Th-T fluorescence … (Fig. 7a)” value (reading M115, compound at 10 (head suffix _10)) was 1.549 and the “Th-T fluorescence … (Fig. 7a)” value (reading M115, compound at 20 (head suffix _20)) was 1.033. The “Th-T fluorescence … (Fig. 7a)” value (reading M115, compound at 50 (head suffix _50)) was 0.477, the “Th-T fluorescence … (Fig. 7a)” value (reading M116, compound at 10 (head suffix _10)) was 1.546 and the “Th-T fluorescence … (Fig. 7a)” value (reading M116, compound at 20 (head suffix _20)) was 1.033. For the same molecule, the “Th-T fluorescence … (Fig. 7a)” value (reading M116, compound at 50 (head suffix _50)) was 0.4778, the “Th-T fluorescence … (Fig. 7a)” value (reading M117, compound at 10 (head suffix _10)) was 1.5424 and the “Th-T fluorescence … (Fig. 7a)” value (reading M117, compound at 20 (head suffix _20)) was 1.029. The “Th-T fluorescence … (Fig. 7a)” value (reading M117, compound at 50 (head suffix _50)) was 0.4747, the “Th-T fluorescence … (Fig. 7a)” value (reading M118, compound at 10 (head suffix _10)) was 1.549 and the “Th-T fluorescence … (Fig. 7a)” value (reading M118, compound at 20 (head suffix _20)) was 1.031. For the same molecule, the “Th-T fluorescence … (Fig. 7a)” value (reading M118, compound at 50 (head suffix _50)) was 0.4759, the “Th-T fluorescence … (Fig. 7a)” value (reading M119, compound at 10 (head suffix _10)) was 1.551 and the “Th-T fluorescence … (Fig. 7a)” value (reading M119, compound at 20 (head suffix _20)) was 1.035. For the same molecule, the “Th-T fluorescence … (Fig. 7a)” value (reading M119, compound at 50 (head suffix _50)) was 0.4763, the “Th-T fluorescence … (Fig. 7a)” value (reading M120, compound at 10 (head suffix _10)) was 1.5465 and the “Th-T fluorescence … (Fig. 7a)” value (reading M120, compound at 20 (head suffix _20)) was 1.04. The “Th-T fluorescence … (Fig. 7a)” value (reading M120, compound at 50 (head suffix _50)) was 0.4773, the “Th-T fluorescence … (Fig. 7a)” value (reading M121, compound at 10 (head suffix _10)) was 1.546 and the “Th-T fluorescence … (Fig. 7a)” value (reading M121, compound at 20 (head suffix _20)) was 1.029. The “Th-T fluorescence … (Fig. 7a)” value (reading M121, compound at 50 (head suffix _50)) was 0.4753, the “Th-T fluorescence … (Fig. 7a)” value (reading M122, compound at 10 (head suffix _10)) was 1.544 and the “Th-T fluorescence … (Fig. 7a)” value (reading M122, compound at 20 (head suffix _20)) was 1.028. The “Th-T fluorescence … (Fig. 7a)” value (reading M122, compound at 50 (head suffix _50)) was 0.4755, the “Th-T fluorescence … (Fig. 7a)” value (reading M123, compound at 10 (head suffix _10)) was 1.5409 and the “Th-T fluorescence … (Fig. 7a)” value (reading M123, compound at 20 (head suffix _20)) was 1.032. For the same molecule, the “Th-T fluorescence … (Fig. 7a)” value (reading M123, compound at 50 (head suffix _50)) was 0.4791, the “Th-T fluorescence … (Fig. 7a)” value (reading M124, compound at 10 (head suffix _10)) was 1.548 and the “Th-T fluorescence … (Fig. 7a)” value (reading M124, compound at 20 (head suffix _20)) was 1.037. The “Th-T fluorescence … (Fig. 7a)” value (reading M124, compound at 50 (head suffix _50)) was 0.4785, the “Th-T fluorescence … (Fig. 7a)” value (reading M125, compound at 10 (head suffix _10)) was 1.541 and the “Th-T fluorescence … (Fig. 7a)” value (reading M125, compound at 20 (head suffix _20)) was 1.031. The “Th-T fluorescence … (Fig. 7a)” value (reading M125, compound at 50 (head suffix _50)) was 0.4776, the “Th-T fluorescence … (Fig. 7a)” value (reading M126, compound at 10 (head suffix _10)) was 1.541 and the “Th-T fluorescence … (Fig. 7a)” value (reading M126, compound at 20 (head suffix _20)) was 1.031. For the same molecule, the “Th-T fluorescence … (Fig. 7a)” value (reading M126, compound at 50 (head suffix _50)) was 0.4736, the “Th-T fluorescence … (Fig. 7a)” value (reading M127, compound at 10 (head suffix _10)) was 1.546 and the “Th-T fluorescence … (Fig. 7a)” value (reading M127, compound at 20 (head suffix _20)) was 1.033. The “Th-T fluorescence … (Fig. 7a)” value (reading M127, compound at 50 (head suffix _50)) was 0.4763, the “Th-T fluorescence … (Fig. 7a)” value (reading M128, compound at 10 (head suffix _10)) was 1.55 and the “Th-T fluorescence … (Fig. 7a)” value (reading M128, compound at 20 (head suffix _20)) was 1.029. For the same molecule, the “Th-T fluorescence … (Fig. 7a)” value (reading M128, compound at 50 (head suffix _50)) was 0.4748, the “Th-T fluorescence, mean of three wells” value (time-course reading M97) was 1.044 and the “Th-T fluorescence, mean of three wells” value (time-course reading M98) was 1.046. The “Th-T fluorescence, mean of three wells” value (time-course reading M99) was 1.04, the “Th-T fluorescence, mean of three wells” value (time-course reading M100) was 1.04 and the “Th-T fluorescence, mean of three wells” value (time-course reading M101) was 1.043. For the same molecule, the “Th-T fluorescence, mean of three wells” value (time-course reading M102) was 1.042, the “Th-T fluorescence, mean of three wells” value (time-course reading M103) was 1.041 and the “Th-T fluorescence, mean of three wells” value (time-course reading M104) was 1.042. The “Th-T fluorescence, mean of three wells” value (time-course reading M105) was 1.041, the “Th-T fluorescence, mean of three wells” value (time-course reading M106) was 1.044 and the “Th-T fluorescence, mean of three wells” value (time-course reading M107) was 1.043. The “Th-T fluorescence, mean of three wells” value (time-course reading M108) was 1.038, the “Th-T fluorescence, mean of three wells” value (time-course reading M109) was 1.039 and the “Th-T fluorescence, mean of three wells” value (time-course reading M110) was 1.044. The “Th-T fluorescence, mean of three wells” value (time-course reading M111) was 1.042, the “Th-T fluorescence, mean of three wells” value (time-course reading M112) was 1.039 and the “Th-T fluorescence, mean of three wells” value (time-course reading M113) was 1.042. For the same molecule, the “Th-T fluorescence, mean of three wells” value (time-course reading M114) was 1.037, the “Th-T fluorescence, mean of three wells” value (time-course reading M115) was 1.041 and the “Th-T fluorescence, mean of three wells” value (time-course reading M116) was 1.037.
